Test results taken from patent publication US10723741B1, “DNA polymerase IIIC inhibitors and use thereof” (Acurx Pharmaceuticals, LLC, priority 2018, dated 2020).
≈ marks a conversion by molar mass, not a printed value. Read-outs that look alike come from different tables or passages of the source.

Experiments:
Format in all cases: cell-based
[1] = system: Staphylococcus aureus NRS384 (MRSA); experiment: Broth microdilution MIC, S. aureus NRS384 (MRSA); parameters: MIC NRS 384 (MRSA): unit not given here; conditions: for MIC: Staphylococcus aureus, read-out: MIC NRS 384 (MRSA)
Summary of the method: (§1)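 Broth microdilution in strain-specific test medium with ~5.0×10^5 cfu/ml inoculum, 1% DMSO and two-fold compound dilutions from 64 to 0.0625 μg/ml. Plates were held 20 hours at 37° C in ambient air. S. pneumoniae colonies were grown beforehand on blood agar in 5% CO2.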

[2] = system: Staphylococcus aureus ATCC 29213 (MSSA); experiment: Broth microdilution MIC, S. aureus ATCC 29213 (MSSA); conditions: read-out: MIC S. aureus ATCC 29213 (MSSA)
Summary of the method: as §1

[3] = system: Enterococcus faecalis ATCC 29212; experiment: Broth microdilution MIC, E. faecalis ATCC 29212; conditions: read-out: MIC E. faecalis ATCC 29212
Summary of the method: as §1

[4] = system: Enterococcus faecium ATCC 700221 (VRE); experiment: Broth microdilution MIC, E. faecium ATCC 700221 (VRE); conditions: Enterococcus faecium, read-out: MIC E. faecium ATCC 700221 (VRE)
Summary of the method: as §1

[5] = system: Streptococcus pneumoniae ATCC 49619; experiment: Broth microdilution MIC, S. pneumoniae ATCC 49619; conditions: read-out: MIC S. pneumoniae ATCC 49619
Summary of the method: as §1

[6] = system: Bacillus subtilis ATCC 6633; experiment: Broth microdilution MIC, B. subtilis ATCC 6633; conditions: read-out: MIC B. subtilis ATCC 6633
Summary of the method: as §1

[7] = system: Escherichia coli ATCC 25922; experiment: Broth microdilution MIC, E. coli ATCC 25922 (MHIIB w & w/o 4 mM EDTA); conditions: for MIC: Escherichia coli, read-out: MIC E. coli ATCC 25922; for MIC E. coli ATCC 25922 + 4 mM EDTA: with 4 mM EDTA
Summary of the method: as §1

[8] = broth microdilution, 37° C., 20 hours
[9] = ATCC29212, broth microdilution, 37° C., 20 hours
[10] = ATCC49619, broth microdilution, 37° C., 20 hours
[11] = ATCC6633, broth microdilution, 37° C., 20 hours
[12] = ATCC25922, without EDTA, broth microdilution, 37° C., 20 hours

| SMILES | MIC [1, 8] [µg/mL] | MIC [2, 8] [µg/mL] | MIC [3, 9] [µg/mL] | MIC [4, 8] [µg/mL] | MIC [5, 10] [µg/mL] | MIC [6, 11] [µg/mL] | MIC [7, 12] [µg/mL] | MIC E. coli ATCC 25922 + 4 mM EDTA [7, 8] [µg/mL] | MIC ([1]; 20 h) [µg/mL] | MIC ([2]; 20 h) [µg/mL] | MIC ([3]; ATCC29212, 20 h) [µg/mL] | MIC ([4]; 20 h) [µg/mL] | MIC ([5]; ATCC49619, 20 h) [µg/mL] | MIC ([6]; ATCC6633, 20 h) [µg/mL] | MIC ([7]; ATCC25922, 20 h) [µg/mL] | MIC NRS 384 (MRSA) [1, 8] |
| --- | --- | --- | --- | --- | --- | --- | --- | --- | --- | --- | --- | --- | --- | --- | --- | --- |
| Cl.O=C(c1nnc[nH]1)N1CCC(n2ncc3nc(NCc4ccc(Cl)c(Cl)c4)[nH]c(=O)c32)CC1 [Compound 265, 1-(1-(4H-1,2,4-triazole-3-carbonyl)piperidin-4-yl)-5-((3,4-dichlorobenzyl)amino)-1H-pyrazolo[4,3-d]pyrimidin-7(6H)-one hydrochloride] | 8 | 8 | 4 | 4 | 4 | 4 | > 64 | >64 |  |  |  |  |  |  |  |  |
| COc1ccncc1C(=O)N1CCC(n2ncc3nc(NCc4ccc(Cl)c(Cl)c4)[nH]c(=O)c32)CC1.Cl [Compound 266, 5-((3,4-Dichlorobenzyl)amino)-1-(1-(4-methoxynicotinoyl)piperidin-4-yl)-1H-pyrazolo[4,3-d]pyrimidin-7(6H)-one hydrochloride] | 8 | 8 | 4 | 2 | 4 | 2 | > 64 | >64 |  |  |  |  |  |  |  |  |
| Cc1ccncc1C(=O)N1CCC(n2ncc3nc(NCc4ccc(Cl)c(Cl)c4)[nH]c(=O)c32)CC1.Cl [Compound 267, 5-((3,4-Dichlorobenzyl)amino)-1-(1-(4-methylnicotinoyl)piperidin-4-yl)-1H-pyrazolo[4,3-d]pyrimidin-7(6H)-one hydrochloride] | 4 | 4 | 4 | 2 | 4 | 1 | > 64 | >64 |  |  |  |  |  |  |  |  |
| COc1cccnc1C(=O)N1CCC(n2ncc3nc(NCc4ccc(Cl)c(Cl)c4)[nH]c(=O)c32)CC1.Cl [Compound 268, 5-((3,4-Dichlorobenzyl)amino)-1-(1-(3-methoxypicolinoyl)piperidin-4-yl)-1H-pyrazolo[4,3-d]pyrimidin-7(6H)-one hydrochloride] | 8 | 8 | 8 | 4 | 4 | 2 | > 64 | >64 |  |  |  |  |  |  |  |  |
| Cl.O=C(c1ncc[nH]1)N1CCC(n2ncc3nc(NCc4ccc(Cl)c(Cl)c4)[nH]c(=O)c32)CC1 [Compound 269, 1-(1-(1H-imidazole-2-carbonyl)piperidin-4-yl)-5-((3,4-dichlorobenzyl)amino)-1H-pyrazolo[4,3-d]pyrimidin-7(6H)-one hydrochloride] | 4 | 4 | 4 | 2 | 4 | 1 | > 64 | >64 |  |  |  |  |  |  |  |  |
| Cl.O=C(c1cnc[nH]1)N1CCC(n2ncc3nc(NCc4ccc(Cl)c(Cl)c4)[nH]c(=O)c32)CC1 [Compound 270, 1-(1-(1H-imidazole-5-carbonyl)piperidin-4-yl)-5-((3,4-dichlorobenzyl)amino)-1H-pyrazolo[4,3-d]pyrimidin-7(6H)-one hydrochloride] | 16 | 16 | 8 | 4 | 8 | 4 | > 64 | >64 |  |  |  |  |  |  |  |  |
| Cl.O=C(c1cc[nH]n1)N1CCC(n2ncc3nc(NCc4ccc(Cl)c(Cl)c4)[nH]c(=O)c32)CC1 [Compound 271, 1-(1-(1H-pyrazole-3-carbonyl)piperidin-4-yl)-5-((3,4-dichlorobenzyl)amino)-1H-pyrazolo[4,3-d]pyrimidin-7(6H)-one hydrochloride] | 8 | 8 | 4 | 4 | 4 | 2 | > 64 | >64 |  |  |  |  |  |  |  |  |
| Cl.O=C(c1cn[nH]n1)N1CCC(n2ncc3nc(NCc4ccc(Cl)c(Cl)c4)[nH]c(=O)c32)CC1 [Compound 272, 1-(1-(2H-1,2,3-triazole-4-carbonyl)piperidin-4-yl)-5-((3,4-dichlorobenzyl)amino)-1H-pyrazolo[4,3-d]pyrimidin-7(6H)-one hydrochloride] | 8 | 16 | 4 | 2 | 8 | 4 | > 64 | >64 |  |  |  |  |  |  |  |  |
| Cl.O=C([C@@H]1C[C@@H](O)CN1)N1CCC(n2ncc3nc(NCc4ccc(Cl)c(Cl)c4)[nH]c(=O)c32)CC1 [Compound 274, 5-((3,4-dichlorobenzyl)amino)-1-(1-((2S,4R)-4-hydroxypyrrolidine-2-carbonyl)piperidin-4-yl)-1H-pyrazolo[4,3-d]pyrimidin-7(6H)-one hydrochloride] | 64 | 32 | 64 | 16 | 16 | 16 | > 64 | >64 |  |  |  |  |  |  |  |  |
| CC(C)(C)OC(=O)N1C[C@H](O)C[C@H]1C(=O)N1CCC(n2ncc3nc(NCc4ccc(Cl)c(Cl)c4)[nH]c(=O)c32)CC1 [Compound 275, (2S,4R)-tert-Butyl 2-(4-(5-((3,4-dichlorobenzyl)amino)-7-oxo-6,7-dihydro-1H-pyrazolo[4,3-d]pyrimidin-1-yl)piperidine-1-carbonyl)-4-hydroxypyrrolidine-1-carboxylate] |  |  |  |  |  |  |  | >64 | 32 (≈ 52.8 µM) | 32 (≈ 52.8 µM) | 16 (≈ 26.4 µM) | 8 (≈ 13.2 µM) | 8 (≈ 13.2 µM) | 8 (≈ 13.2 µM) | > 64 |  |
| CN(C)CC(O)C(O)C(=O)N1CCC(n2ncc3nc(NCc4ccc(Cl)c(Cl)c4)[nH]c(=O)c32)CC1.Cl (stereo not drawn) [Compound 277, 5-((3,4-dichlorobenzyl)amino)-1-(1-(4-(dimethylamino)-2,3-dihydroxybutanoyl)piperidin-4-yl)-1H-pyrazolo[4,3-d]pyrimidin-7(6H)-one hydrochloride] | 64 | > 64 | 64 | 32 | 16 | 16 | > 64 | >64 |  |  |  |  |  |  |  |  |
| Cl.O=C([C@@H]1C[C@H](O)CN1)N1CCC(n2ncc3nc(NCc4ccc(Cl)c(Cl)c4)[nH]c(=O)c32)CC1 [Compound 278, 5-((3,4-dichlorobenzyl)amino)-1-(1-((2S,4S)-4-hydroxypyrrolidine-2-carbonyl)piperidin-4-yl)-1H-pyrazolo[4,3-d]pyrimidin-7(6H)-one hydrochloride] | > 64 | > 64 | > 64 | 64 | 32 | 32 | > 64 | >64 |  |  |  |  |  |  |  |  |
| CN(C)C(CO)C(=O)N1CCC(n2ncc3nc(NCc4ccc(Cl)c(Cl)c4)[nH]c(=O)c32)CC1.Cl (stereo not drawn) [Compound 279, 5-((3,4-dichlorobenzyl)amino)-1-(1-(2-(dimethylamino)-3-hydroxypropanoyl)piperidin-4-yl)-1H-pyrazolo[4,3-d]pyrimidin-7(6H)-one hydrochloride] | 32 | 32 | 16 | 16 | 4 | 4 | > 64 | >64 |  |  |  |  |  |  |  |  |
| Cl.O=C(c1cccnc1)N1CCCC(Cn2ncc3nc(NCc4ccc(Cl)c(Cl)c4)[nH]c(=O)c32)C1 (stereo not drawn) [Compound 280, 5-((3,4-dichlorobenzyl)amino)-1-((1-nicotinoylpiperidin-3-yl)methyl)-1H-pyrazolo[4,3-d]pyrimidin-7(6H)-one hydrochloride] | 16 | 16 | 16 | 8 | 8 | 16 | > 64 | >64 |  |  |  |  |  |  |  |  |
| CC(=O)N1CCC(Cn2ncc3nc(NCc4ccc(Cl)c(Cl)c4)[nH]c(=O)c32)C1 (stereo not drawn) [Compound 281, 1-((1-Acetylpyrrolidin-3-yl)methyl)-5-((3,4-dichlorobenzyl)amino)-1H-pyrazolo[4,3-d]pyrimidin-7(6H)-one] |  | 8 (≈ 18.4 µM) | 4 (≈ 9.19 µM) | 2 (≈ 4.59 µM) | 2 (≈ 4.59 µM) | 2 (≈ 4.59 µM) | > 64 | >64 |  |  |  |  |  |  |  | 4/8 |
